Reference: ChEMBL document CHEMBL4665624, “Synthesis of 5-(4-(1H-phenanthro[9,10-d]imidazol-2-yl)benzylidene)thiazolidine-2,4-dione as promising DNA and serum albumin-binding agents and evaluation of antitumor activity” (Eur J Med Chem, 2019)

Columns and labels:
PC-3 = experiment: Antitumor activity against human PC-3 cells assessed as cell growth inhibition at 10 uM incubated for 48 hrs by sulforhodamine B assay; format: functional; details: read-out: GI
UACC-62 = experiment: Antitumor activity against human UACC-62 cells assessed as cell growth inhibition at 10 uM incubated for 48 hrs by sulforhodamine B assay; format: functional; details: read-out: GI
HCT-15 = experiment: Antitumor activity against human HCT15 cells assessed as cell growth inhibition at 10 uM incubated for 48 hrs by sulforhodamine B assay; format: functional; details: read-out: GI
OVCAR-4 = experiment: Antitumor activity against human OVCAR-4 cells assessed as cell growth inhibition at 10 uM incubated for 48 hrs by sulforhodamine B assay; format: functional; details: read-out: GI
Hs-578T = experiment: Antitumor activity against human HS 578T cells assessed as cell growth inhibition at 10 uM incubated for 48 hrs by sulforhodamine B assay; format: functional; details: read-out: GI
NCI-H226 = experiment: Antitumor activity against human NCI-H226 assessed as cell growth inhibition at 10 uM incubated for 48 hrs by sulforhodamine B assay; format: functional; details: read-out: GI
NCI/ADR-RES = experiment: Antitumor activity against human NCI/ADR-RES cells assessed as cell growth inhibition at 10 uM incubated for 48 hrs by sulforhodamine B assay; format: functional; details: read-out: GI
RXF 393 = experiment: Antitumor activity against human RXF 393 cells assessed as cell growth inhibition at 10 uM incubated for 48 hrs by sulforhodamine B assay; format: functional; details: read-out: GI
SK-MEL-28 = experiment: Antitumor activity against human SK-MEL-28 cells assessed as cell growth inhibition at 10 uM incubated for 48 hrs by sulforhodamine B assay; format: functional; details: read-out: GI
OVCAR-3 = experiment: Antitumor activity against human OVCAR-3 cells assessed as cell growth inhibition at 10 uM incubated for 48 hrs by sulforhodamine B assay; format: functional; details: read-out: GI
MDA-MB-468 = experiment: Antitumor activity against human MDA-MB-468 cells assessed as cell growth inhibition at 10 uM incubated for 48 hrs by sulforhodamine B assay; format: functional; details: read-out: GI
LOX IMVI = experiment: Antitumor activity against human LOX IMVI cells assessed as cell growth inhibition at 10 uM incubated for 48 hrs by sulforhodamine B assay; format: functional; details: read-out: GI
SNB-19 = experiment: Antitumor activity against human SNB-19 cells assessed as cell growth inhibition at 10 uM incubated for 48 hrs by sulforhodamine B assay; format: functional; details: read-out: GI
U-251 = experiment: Antitumor activity against human U251 cells assessed as cell growth inhibition at 10 uM incubated for 48 hrs by sulforhodamine B assay; format: functional; details: read-out: GI
IGROV-1 = experiment: Antitumor activity against human IGROV1 cells assessed as cell growth inhibition at 10 uM incubated for 48 hrs by sulforhodamine B assay; format: functional; details: read-out: GI
HT-29 = experiment: Antitumor activity against human HT-29 cells assessed as cell growth inhibition at 10 uM incubated for 48 hrs by sulforhodamine B assay; format: functional; details: read-out: GI
Malme-3M = experiment: Antitumor activity against human MALME-3M cells assessed as cell growth inhibition at 10 uM incubated for 48 hrs by sulforhodamine B assay; format: functional; details: read-out: GI
SR = experiment: Antitumor activity against human SR cells assessed as cell growth inhibition at 10 uM incubated for 48 hrs by sulforhodamine B assay; format: functional; details: read-out: GI
SK-OV-3 = experiment: Antitumor activity against human SK-OV-3 cells assessed as cell growth inhibition at 10 uM incubated for 48 hrs by sulforhodamine B assay; format: functional; details: read-out: GI
A498 = experiment: Antitumor activity against human A498 cells assessed as cell growth inhibition at 10 uM incubated for 48 hrs by sulforhodamine B assay; format: functional; details: read-out: GI
RPMI-8226 = experiment: Antitumor activity against human RPMI8226 cells assessed as cell growth inhibition at 10 uM incubated for 48 hrs by sulforhodamine B assay; format: functional; details: read-out: GI
KM12 = experiment: Antitumor activity against human KM12 cells assessed as cell growth inhibition at 10 uM incubated for 48 hrs by sulforhodamine B assay; format: functional; details: read-out: GI
HL-60(TB) = experiment: Antitumor activity against human HL-60(TB) cells assessed as cell growth inhibition at 10 uM incubated for 48 hrs by sulforhodamine B assay; format: functional; details: read-out: GI
CCRF-CEM = experiment: Antitumor activity against human CCRF-CEM cells assessed as cell growth inhibition at 10 uM incubated for 48 hrs by sulforhodamine B assay; format: functional; details: read-out: GI
M14 = experiment: Antitumor activity against human M14 cells assessed as cell growth inhibition at 10 uM incubated for 48 hrs by sulforhodamine B assay; format: functional; details: read-out: GI
786-0 = experiment: Antitumor activity against human 786-0 cells assessed as cell growth inhibition at 10 uM incubated for 48 hrs by sulforhodamine B assay; format: functional; details: read-out: GI
NCI-H460 = experiment: Antitumor activity against human NCI-H460 assessed as cell growth inhibition at 10 uM incubated for 48 hrs by sulforhodamine B assay; format: functional; details: read-out: GI
BT-549 = experiment: Antitumor activity against human BT-549 cells assessed as cell growth inhibition at 10 uM incubated for 48 hrs by sulforhodamine B assay; format: functional; details: read-out: GI
SN12C = experiment: Antitumor activity against human SN12C cells assessed as cell growth inhibition at 10 uM incubated for 48 hrs by sulforhodamine B assay; format: functional; details: read-out: GI
HOP-92 = experiment: Antitumor activity against human HOP92 cells assessed as cell growth inhibition at 10 uM incubated for 48 hrs by sulforhodamine B assay; format: functional; details: read-out: GI
SF-295 = experiment: Antitumor activity against human SF295 cells assessed as cell growth inhibition at 10 uM incubated for 48 hrs by sulforhodamine B assay; format: functional; details: read-out: GI
MDA-MB-435 = experiment: Antitumor activity against human MDA-MB-435 cells assessed as cell growth inhibition at 10 uM incubated for 48 hrs by sulforhodamine B assay; format: functional; details: read-out: GI
EKVX = experiment: Antitumor activity against human EKVX cells assessed as cell growth inhibition at 10 uM incubated for 48 hrs by sulforhodamine B assay; format: functional; details: read-out: GI
K562 = experiment: Antitumor activity against human K562 cells assessed as cell growth inhibition at 10 uM incubated for 48 hrs by sulforhodamine B assay; format: functional; details: read-out: GI
NCI-H522 = experiment: Antitumor activity against human NCI-H522 cells assessed as cell growth inhibition at 10 uM incubated for 48 hrs by sulforhodamine B assay; format: functional; details: read-out: GI
SW-620 = experiment: Antitumor activity against human SW620 cells assessed as cell growth inhibition at 10 uM incubated for 48 hrs by sulforhodamine B assay; details: SW-620, 48 h, read-out: GI
OVCAR-8 = experiment: Antitumor activity against human OVCAR-8 cells assessed as cell growth inhibition at 10 uM incubated for 48 hrs by sulforhodamine B assay; format: functional; details: read-out: GI
ACHN = experiment: Antitumor activity against human ACHN cells assessed as cell growth inhibition at 10 uM incubated for 48 hrs by sulforhodamine B assay; format: functional; details: read-out: GI
MDA-MB-231 = experiment: Antitumor activity against human MDA-MB-231/ATCC cells assessed as cell growth inhibition at 10 uM incubated for 48 hrs by sulforhodamine B assay; format: functional; details: read-out: GI
MOLT-4 = experiment: Antitumor activity against human MOLT4 cells assessed as cell growth inhibition at 10 uM incubated for 48 hrs by sulforhodamine B assay; format: functional; details: read-out: GI
NCI-H23 = experiment: Antitumor activity against human NCI-H23 cells assessed as cell growth inhibition at 10 uM incubated for 48 hrs by sulforhodamine B assay; format: functional; details: read-out: GI
MCF7 = experiment: Antitumor activity against human MCF7 cells assessed as cell growth inhibition at 10 uM incubated for 48 hrs by sulforhodamine B assay; format: functional; details: read-out: GI
HCC 2998 = experiment: Antitumor activity against human HCC2998 cells assessed as cell growth inhibition at 10 uM incubated for 48 hrs by sulforhodamine B assay; format: functional; details: read-out: GI
COLO 205 = experiment: Antitumor activity against human COLO205 cells assessed as cell growth inhibition at 10 uM incubated for 48 hrs by sulforhodamine B assay; format: functional; details: read-out: GI
HCT-116 = experiment: Antitumor activity against human HCT116 cells assessed as cell growth inhibition at 10 uM incubated for 48 hrs by sulforhodamine B assay; format: functional; details: read-out: GI
SNB-75 = experiment: Antitumor activity against human SNB-75 cells assessed as cell growth inhibition at 10 uM incubated for 48 hrs by sulforhodamine B assay; format: functional; details: read-out: GI
UO-31 = experiment: Antitumor activity against human UO-31 cells assessed as cell growth inhibition at 10 uM incubated for 48 hrs by sulforhodamine B assay; format: functional; details: read-out: GI
SF-268 = experiment: Antitumor activity against human SF268 cells assessed as cell growth inhibition at 10 uM incubated for 48 hrs by sulforhodamine B assay; format: functional; details: read-out: GI

O=C1c2ccccc2C(=O)c2c1ccc1[nH]c(-c3ccc(-c4nc5c6ccccc6c6ccccc6c5[nH]4)cc3)nc21
inhibition of growth at 10 µM (PC-3): < 10%
inhibition of growth at 10 µM (UACC-62): < 10%
inhibition of growth at 10 µM (HCT-15): < 10%
inhibition of growth at 10 µM (OVCAR-4): 89%
inhibition of growth at 10 µM (Hs-578T): < 10%
inhibition of growth at 10 µM (NCI-H226): < 10%
inhibition of growth at 10 µM (NCI/ADR-RES): < 10%
inhibition of growth at 10 µM (RXF 393): < 10%
inhibition of growth at 10 µM (SK-MEL-28): < 10%
inhibition of growth at 10 µM (OVCAR-3): < 10%
inhibition of growth at 10 µM (MDA-MB-468): < 10%
inhibition of growth at 10 µM (LOX IMVI): < 10%
inhibition of growth at 10 µM (SNB-19): < 10%
inhibition of growth at 10 µM (U-251): < 10%
inhibition of growth at 10 µM (IGROV-1): < 10%
inhibition of growth at 10 µM (HT-29): < 10%
inhibition of growth at 10 µM (Malme-3M): < 10%
inhibition of growth at 10 µM (SR): 11.4%
inhibition of growth at 10 µM (SK-OV-3): < 10%
inhibition of growth at 10 µM (A498): < 10%
inhibition of growth at 10 µM (RPMI-8226): 10.4%
inhibition of growth at 10 µM (KM12): < 10%
inhibition of growth at 10 µM (HL-60(TB)): < 10%
inhibition of growth at 10 µM (CCRF-CEM): < 10%
inhibition of growth at 10 µM (M14): < 10%
inhibition of growth at 10 µM (786-0): < 10%
inhibition of growth at 10 µM (NCI-H460): < 10%
inhibition of growth at 10 µM (BT-549): < 10%
inhibition of growth at 10 µM (SN12C): < 10%
inhibition of growth at 10 µM (HOP-92): < 10%
inhibition of growth at 10 µM (SF-295): < 10%
inhibition of growth at 10 µM (MDA-MB-435): < 10%
inhibition of growth at 10 µM (EKVX): 10.3%
inhibition of growth at 10 µM (K562): < 10%
inhibition of growth at 10 µM (NCI-H522): < 10%
inhibition of growth at 10 µM (SW-620): < 10%
inhibition of growth at 10 µM (OVCAR-8): < 10%
inhibition of growth at 10 µM (ACHN): < 10%
inhibition of growth at 10 µM (MDA-MB-231): 14.4%
inhibition of growth at 10 µM (MOLT-4): 12.4%
inhibition of growth at 10 µM (NCI-H23): < 10%
inhibition of growth at 10 µM (MCF7): < 10%
inhibition of growth at 10 µM (HCC 2998): < 10%
inhibition of growth at 10 µM (COLO 205): < 10%
inhibition of growth at 10 µM (HCT-116): < 10%
inhibition of growth at 10 µM (SNB-75): 10%
inhibition of growth at 10 µM (UO-31): 22.6%
inhibition of growth at 10 µM (SF-268): < 10%
